Results taken from US20230113747A1, “IMMUNOGENIC PEPTIDES WITH AN OXIDOREDUCTASE MOTIF COMPRISING A MODIFIED CYSTEINE” (priority 2019, published 2023).
Ends that are not written are not given here.

Test system: two peptides with a FITC label covalently attached to each other via a disulfide bridge
Assay: Reductase activity of the peptides, fluorescent assay (Tomazzolli et al.)
Format: biochemical
Settings: not given

| Substance | oxidoreductase activity |
| --- | --- |
| N-Acetyl-CPYCVQYIKANSKFIGITEL [Peptide 7] | higher oxidoreductase activity than the control peptide |

Same assay, conditions: compared with the control peptide without modified cysteine; DTT = 100% reducing activity, water = 0%

| Substance | oxidoreductase activity |
| --- | --- |
| N-acetyl C-PYC GW YRSPFSRVV HLYR —NH2 [Peptide 22] | higher oxidoreductase activity than the control peptide |
| N-Acetyl-CPYCSLQPLALEGSLQKRG (Ac-CPYCSLQPLALEGSLQKRG; not fully specified (C-terminus); printed as N-Acetyl-CPYCSLQPLALEGSLQKRG; cysteine pairing not given here) [Peptide 2] | higher oxidoreductase activity than the control peptide |
| GWYRSPFSRVVHLYRCPYC-NH-methyl (GWYRSPFSRVVHLYRCPYC-NHMe; cysteine pairing not given here) [Peptide 29] | slightly higher oxidoreductase activity than the control peptide |
| N-ethyl C-PYC GW YRSPFSRVV HLYR —NH2 [Peptide 24] | no oxidoreductase activity |
| N-propionyl C-PYC GW YRSPFSRVV HLYR —NH2 [Peptide 25] | higher oxidoreductase activity than the control peptide |
| N-methyl C-PYC GW YRSPFSRVV HLYR —NH2 [Peptide 23] | equivalent activity as compared to the control peptide |
| N-acetyl C-HGC GW YRSPFSRVV HLYR —NH2 [Peptide 27] | higher activity than the control peptide |
| GW YRSPFSRVV HLYR CPY-C—NH-ethyl (GWYRSPFSRVVHLYRCPYC-NHEt; cysteine pairing not given here) [Peptide 30] | slightly higher oxidoreductase activity than the control peptide |
